PubChem BioAssay AID1918952 (Molecular Pharmacology Branch, DTP, NCI, 2023)

Tested on: LG0703-F948-PDC complex spheroid viability
Assay: Anticancer human tumor LG0703-F948-PDC patient-derived lung adenocarcinoma cell line growth inhibition
Details: for IC50: curve of first compound; for viability, T/C: stronger effect = lower value
Outline: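 Drug combinations with the LSD1 inhibitor iadademstat tested on tumor cells co-cultured as spheroids with endothelial cells and mesenchymal stem cells. Concentrations descended in half-log increments from clinical Cmax or 10 microM.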
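Also: spheroids exposed to agents for seven days before readout.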
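For viability, T/C in this document: 100% = DMSO vehicle control wells as normalization base.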

SMILES: Cn1ncnc1C1c2n[nH]c(=O)c3cc(F)cc(c23)NC1c1ccc(F)cc1 (stereo not given) + NC1CCC(NC2CC2c2ccccc2)CC1
- IC50 (second compound 0.1 µM): > 100 nM
- IC50 (second compound 0.316 µM): > 100 nM
- IC50 (second compound 1 µM): > 100 nM
- IC50 (second compound 3.16 µM): > 100 nM
- IC50 (second compound 10 µM): > 100 nM
- viability, T/C (second compound 0.1 µM, first compound 0.000316 µM): 102%
- viability, T/C (second compound 0.1 µM, first compound 0.001 µM): 96.2%
- viability, T/C (second compound 0.1 µM, first compound 0.00316 µM): 93.1%
- viability, T/C (second compound 0.1 µM, first compound 0.01 µM): 104%
- viability, T/C (second compound 0.1 µM, first compound 0.0316 µM): 88.4%
- viability, T/C (second compound 0.1 µM, first compound 0.1 µM): 97.8%
- viability, T/C (second compound 0.316 µM, first compound 0.000316 µM): 111%
- viability, T/C (second compound 0.316 µM, first compound 0.001 µM): 108%
- viability, T/C (second compound 0.316 µM, first compound 0.00316 µM): 95.8%
- viability, T/C (second compound 0.316 µM, first compound 0.01 µM): 113%
- viability, T/C (second compound 0.316 µM, first compound 0.0316 µM): 93.1%
- viability, T/C (second compound 0.316 µM, first compound 0.1 µM): 96.9%
- viability, T/C (second compound 1 µM, first compound 0.000316 µM): 113%
- viability, T/C (second compound 1 µM, first compound 0.001 µM): 128%
- viability, T/C (second compound 1 µM, first compound 0.00316 µM): 116%
- viability, T/C (second compound 1 µM, first compound 0.01 µM): 111%
- viability, T/C (second compound 1 µM, first compound 0.0316 µM): 115%
- viability, T/C (second compound 1 µM, first compound 0.1 µM): 97.7%
- viability, T/C (second compound 3.16 µM, first compound 0.000316 µM): 122%
- viability, T/C (second compound 3.16 µM, first compound 0.001 µM): 133%
- viability, T/C (second compound 3.16 µM, first compound 0.00316 µM): 115%
- viability, T/C (second compound 3.16 µM, first compound 0.01 µM): 123%
- viability, T/C (second compound 3.16 µM, first compound 0.0316 µM): 117%
- viability, T/C (second compound 3.16 µM, first compound 0.1 µM): 122%
- viability, T/C (second compound 10 µM, first compound 0.000316 µM): 108%
- viability, T/C (second compound 10 µM, first compound 0.001 µM): 123%
- viability, T/C (second compound 10 µM, first compound 0.00316 µM): 115%
- viability, T/C (second compound 10 µM, first compound 0.01 µM): 117%
- viability, T/C (second compound 10 µM, first compound 0.0316 µM): 111%
- viability, T/C (second compound 10 µM, first compound 0.1 µM): 121%
